Measured values from publication PMC4388264, “ANS complex of St John’s wort PR-10 protein with 28 copies in the asymmetric unit: a fiendish combination of pseudosymmetry with tetartohedral twinning” (Acta Crystallographica Section D: Biological Crystallography, 2015).

Target: T1, Hyp-1 (Hypericum perforatum, UniProt Q8H1L1)
T1 construct: gene HYP1.1; recombinant Hyp-1 with an N-terminal hexapeptide extension (GIDPFW–) as a cloning artifact
T1 sequence (Q8H1L1 1-159): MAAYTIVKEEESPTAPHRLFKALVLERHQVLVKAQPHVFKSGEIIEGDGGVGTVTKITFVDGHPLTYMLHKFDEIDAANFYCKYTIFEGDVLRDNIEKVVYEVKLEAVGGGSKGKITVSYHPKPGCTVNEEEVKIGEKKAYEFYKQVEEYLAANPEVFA
Assay: crystal structure at […] Å and ITC (N = […]); fluorometric titration gave Kd […]
Assay type: binding

O=S(=O)(O)c1cccc2cccc(Nc3ccccc3)c12 [ANS, 8-anilino-1-naphthalene sulfonate]
Kd: 108 ± 3 µM
